Experiments:
[1] = Influence on body weight of SD rat by repeated administration (in vivo); conditions: two weeks; for Relative body weight ratio (%): 750 mg/kg orally once a day, relative to vehicle-administered group
Procedure: The rats were grouped as follows, with four animals in each group, by a random classification method such that the average body weights of the each groups would be almost uniform (Day 1).
The body weight change (BWC) was used as an index indicating the systemic toxicity caused by drug administration. The BWC was calculated by the following formula. BWC (%)=([(Rat body weight on 14 days after the administration)−(rat body weight at the time of grouping)]/(rat body weight at the time of grouping))×100
The relative body weight change ratios in the each compound-administered groups were calculated by the following formula when the BWC in the vehicle-administered group was set as 1, and the results are indicated in Table 52. Relative body weight change ratio (%)=(BWC in the compound-administered group)/(BWC in the vehicle-administered group)×100

[2] = molecular target: purified recombinant human BTK protein (Homo sapiens (Human), UniProt Q06187); assay: Measurement of BTK inhibitory activity (in vitro); type: biochemical; conditions: FL-PEPTIDE 2 substrate 1 μM, ATP 45 μM, 40 minutes at 25° C.
Summary of the method: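 Recombinant human BTK with FL-PEPTIDE 2 substrate (1 μM), 45 μM ATP and 10 mM MgCl2 in 20 mM HEPES pH 7.5, 2 mM DTT, 0.01% Triton X-100, 5% DMSO; 40 min at 25° C. Reaction stopped with 30 mM EDTA. Phosphorylated and unphosphorylated peptide separated and detected by microchannel capillary electrophoresis.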

[3] = test system: purified recombinant human EGFR protein / BTK; assay: BTK inhibition selectivity compared with EGFR kinase inhibitory activity (in vitro); type: biochemical; conditions: EGFR assay ATP 1.5 μM
[4] = test system: A431 cells / TMD8 cells; assay: Proliferation inhibitory activity against cell lines expressing BTK and EGFR (in vitro), comparison of selectivity; type: cell-based, human; conditions: ratio from GI50 (nM), 3 days culture, CELLTITER GLO
Summary of the method: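 BTK-expressing TMD8 DLBCL cells (RPMI1640/10% FBS) and EGFR-overexpressing A431 epidermoid carcinoma cells (DMEM/10% FBS) cultured 1 day, then exposed to compound (0.2% DMSO final) for 3 days at 37° C. Luminescence read-out; inhibition ratio % = (C−T)/(C−C0)×100, with A431/TMD8 ratio as selectivity index.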

[5] = test system: Human B cell lymphoma-derived cell line TMD8; assay: Antitumor effect, TMD8 subcutaneously transplanted into SCID mice; type: in vivo; conditions: Day 17; 50 mg/kg orally once a day
Description: (§1) Human B cell lymphoma-derived cell line TMD8 was subcutaneously transplanted into SCID mice. At the time point when the volume of engrafted tumors reached 100 to 200 mm^3, the mice were divided into groups, with 5 animals in each group, by a random classification method (Day 1) such that the tumor volumes in the various groups would be uniform, and oral administration was initiated. […] In order to compare the antitumor effect caused by the drug administration, the relative tumor volume (RTV), which was the proliferation ratio of tumor when the tumor volume at the time of grouping was set as one, was determined by the following formula. RTV=(Tumor volume on the day of tumor volume measurement)/(tumor volume at the time of grouping)

[6] = Body weight change ratio in TMD8-transplanted SCID mice; type: in vivo; conditions: Day 17; 50 mg/kg orally once a day
Description: as §1
The body weight change (BWC) was used as an index indicating the systemic toxicity caused by drug administration. BWC (%)=([(mice body weight on the day of weight measurement)−(mice body weight at the time of grouping)]/(mice body weight at the time of grouping))×100 (Mathematical Formula 1)

Chain of purified recombinant human BTK protein (Q06187 whole entry): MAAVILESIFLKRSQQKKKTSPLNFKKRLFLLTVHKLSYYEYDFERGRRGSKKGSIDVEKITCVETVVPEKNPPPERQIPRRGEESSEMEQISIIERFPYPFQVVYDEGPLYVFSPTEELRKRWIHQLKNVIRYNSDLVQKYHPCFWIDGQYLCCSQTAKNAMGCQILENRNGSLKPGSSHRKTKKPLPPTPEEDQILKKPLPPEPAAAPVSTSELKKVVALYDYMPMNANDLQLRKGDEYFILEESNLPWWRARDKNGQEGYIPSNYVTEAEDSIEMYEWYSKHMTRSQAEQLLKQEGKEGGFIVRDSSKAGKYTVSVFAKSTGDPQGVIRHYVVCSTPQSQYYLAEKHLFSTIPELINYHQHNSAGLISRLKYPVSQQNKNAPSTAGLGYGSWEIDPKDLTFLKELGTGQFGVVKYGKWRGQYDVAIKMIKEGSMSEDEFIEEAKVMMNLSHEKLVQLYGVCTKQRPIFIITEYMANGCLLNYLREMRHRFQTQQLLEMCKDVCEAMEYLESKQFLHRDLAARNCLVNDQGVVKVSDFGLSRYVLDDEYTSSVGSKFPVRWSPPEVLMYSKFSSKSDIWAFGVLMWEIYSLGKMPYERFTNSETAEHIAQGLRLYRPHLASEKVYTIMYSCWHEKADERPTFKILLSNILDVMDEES

Which “individuals suffering from loose bowel” value ([1]; 280 mg/kg orally once a day) does the source give for `C=CC(=O)N1CCC[C@@H](n2nc(-c3ccc(Oc4ccccc4)cc3)c3c(N)ncnc32)C1` [Comparative Example Compound 1, (R)-1-(3-(4-amino-3-(4-phenoxyphenyl)-1H-pyrazolo[3,4-d]pyrimidin-1-yl)piperidin-1-yl)prop-2-en-1-one, reference compound] here?
The value was “individuals suffering from loose bowel were recognized”.

And the “width of rat body weight increase compared with the vehicle-administered group” value ([1]; 280 mg/kg orally once a day)?
The value was “very small”.

With `CCN(C)C/C=C/C(=O)N1CCC[C@@H](n2nc(C(=O)Nc3nc4cc(Cl)ccc4o3)c3c(N)ncnc32)C1` [Example 16, (R,E)-4-amino-N-(5-chlorobenzo[d]oxazol-2-yl)-1-(1-(4-(ethyl(methyl)amino)but-2-enoyl)piperidin-3-yl)-1H-pyrazolo[3,4-d]pyrimidine-3-carboxamide] as the compound, how does the IC50 [2] read?
The IC50 was 0.733 nM.

What about the “EGFR inhibitory activity IC50 value (nM)/BTK inhibitory activity IC50 value (nM)” value (“EGFR inhibitory activity IC50 value” below) [3] of the same compound?
Its value is 158.1.

And the “A431 cell proliferation inhibition ratio/TMD8 cell proliferation inhibitio ratio” value [4]?
The value was greater than 16313.2.

With `C=CC(=O)N1CCC[C@@H](n2nc(C(=O)Nc3nc4ccccc4o3)c3c(N)ncnc32)C1` [Example 13, (R)-1-(1-acryloylpiperidin-3-yl)-4-amino-N-(benzo[d]oxazol-2-yl)-1H-pyrazolo[3,4-d]pyrimidine-3-carboxamide] as the compound, how does the “RTV (relative tumor volume)” value [5] read?
Its value is 4.24.

What about the “Relative body weight ratio (%)” value [1] of the same compound?
The value was 79.1%.

What about the IC50 [2] of the same compound?
The IC50 was 0.813 nM.

What about the “BWC (body weight change)” value [6] of the same compound?
The value was 3.8%.

What about the “EGFR inhibitory activity IC50 value” value [3] of the same compound?
Its value is 28.8.

And the “A431 cell proliferation inhibition ratio/TMD8 cell proliferation inhibitio ratio” value [4]?
Its value is 4872.2.

Which results are given for `C=CC(=O)N1CCC[C@@H](n2nc(C(=O)Nc3nc4cc(F)ccc4o3)c3c(N)ncnc32)C1` [Example 12, (R)-1-(1-acryloylpiperidin-3-yl)-4-amino-N-(5-fluorobenzo[d]oxazol-2-yl)-1H-pyrazolo[3,4-d]pyrimidine-3-carboxamide]?
RTV (relative tumor volume) [5]: 0.13; Relative body weight ratio (%) [1]: 91.2%; IC50 [2]: 0.433 nM; BWC (body weight change) [6]: 6.0%; EGFR inhibitory activity IC50 value (nM)/BTK inhibitory activity IC50 value (nM) [3]: 84.2; A431 cell proliferation inhibition ratio/TMD8 cell proliferation inhibitio ratio [4]: 3077.4

For `CN(C)C/C=C/C(=O)N1CC[C@@H](n2nc(C(=O)Nc3nc4cc(Cl)ccc4o3)c3c(N)ncnc32)C1` [Example 32, (R,E)-4-amino-N-(5-chlorobenzo[d]oxazol-2-yl)-1-(1-(4-(dimethylamino)but-2-enoyl)pyrrolidin-3-yl)-1H-pyrazolo[3,4-d]pyrimidine-3-carboxamide], which IC50 [2] is on record?
Its IC50 is 0.634 nM.

And the “EGFR inhibitory activity IC50 value” value [3]?
Its value is 43.1.

What about the “A431 cell proliferation inhibition ratio/TMD8 cell proliferation inhibitio ratio” value [4] of the same compound?
The value was greater than 11123.5.

With `C=CC(=O)N1CC[C@@H](n2nc(C(=O)Nc3nc4cc(F)ccc4o3)c3c(N)ncnc32)C1` [Example 30, (R)-1-(1-acryloylpyrrolidin-3-yl)-4-amino-N-(5-fluorobenzo[d]oxazol-2-yl)-1H-pyrazolo[3,4-d]pyrimidine-3-carboxamide] as the compound, how does the IC50 [2] read?
Its IC50 is 0.566 nM.

What about the “EGFR inhibitory activity IC50 value” value [3] of the same compound?
Its value is 21.3.

And the “A431 cell proliferation inhibition ratio/TMD8 cell proliferation inhibitio ratio” value [4]?
The value was 5164.3.

What does the source list for `Nc1ncnc2c1c(C(=O)Nc1nc3cc(Cl)ccc3o1)nn2[C@@H]1CCCN(C(=O)/C=C/CN2CCCC2)C1` [Example 19, (R,E)-4-amino-N-(5-chlorobenzo[d]oxazol-2-yl)-1-(1-(4-(pyrrolidin-1-yl)but-2-enoyl)piperidin-3-yl)-1H-pyrazolo[3,4-d]pyrimidine-3-carboxamide]?
IC50 [2]: 0.69 nM; EGFR inhibitory activity IC50 value (nM)/BTK inhibitory activity IC50 value (nM) [3]: 144.8; A431 cell proliferation inhibition ratio/TMD8 cell proliferation inhibitio ratio [4]: >17825.3

With `CN(C)C/C=C/C(=O)N1CC[C@@H](n2nc(C(=O)Nc3nc4cc(C(F)(F)F)ccc4o3)c3c(N)ncnc32)C1` [Example 44, (R,E)-4-amino-N-(5-(trifluoromethyl)benzo[d]oxazol-2-yl)-1-(1-(4-(dimethylamino)but-2-enoyl)pyrrolidin-3-yl)-1H-pyrazolo[3,4-d]pyrimidine-3-carboxamide] as the compound, how does the IC50 [2] read?
Its IC50 is 0.877 nM.

And the “EGFR inhibitory activity IC50 value” value [3]?
The value was 17.1.

What about the “A431 cell proliferation inhibition ratio/TMD8 cell proliferation inhibitio ratio” value [4] of the same compound?
The value was 10905.1.

Which results are given for `C=CC(=O)N1CC[C@@H](n2nc(C(=O)Nc3nc4cc(CCOC)ccc4o3)c3c(N)ncnc32)C1` [Example 40, (R)-1-(1-acryloylpyrrolidin-3-yl)-4-amino-N-(5-(2-methoxyethyl)benzo[d]oxazol-2-yl)-1H-pyrazolo[3,4-d]pyrimidine-3-carboxamide]?
IC50 [2]: 2.09 nM; EGFR inhibitory activity IC50 value (nM)/BTK inhibitory activity IC50 value (nM) [3]: 10.0; A431 cell proliferation inhibition ratio/TMD8 cell proliferation inhibitio ratio [4]: >3159.6

Which results are given for `CCN(CC)C/C=C/C(=O)N1CCC[C@@H](n2nc(C(=O)Nc3nc4cc(Cl)ccc4o3)c3c(N)ncnc32)C1` [Example 17, (R,E)-4-amino-N-(5-chlorobenzo[d]oxazol-2-yl)-1-(1-(4-(diethylamino)but-2-enoyl)piperidin-3-yl)-1H-pyrazolo[3,4-d]pyrimidine-3-carboxamide]?
IC50 [2]: 0.811 nM; EGFR inhibitory activity IC50 value (nM)/BTK inhibitory activity IC50 value (nM) [3]: 157.2; A431 cell proliferation inhibition ratio/TMD8 cell proliferation inhibitio ratio [4]: >12345.7

With `Nc1ncnc2c1c(C(=O)Nc1nc3cc(Cl)ccc3o1)cn2[C@@H]1CCN(C(=O)/C=C/CN2CCCCC2)C1` [Example 54, (R,E)-4-amino-N-(5-chlorobenzo[d]oxazol-2-yl)-7-(1-(4-(piperidin-1-yl)but-2-enoyl)pyrrolidin-3-yl) 7H-pyrrolo[2,3-d]pyrimidine-5-carboxamide] as the compound, how does the IC50 [2] read?
The IC50 was 1.44 nM.

What about the “EGFR inhibitory activity IC50 value” value [3] of the same compound?
Its value is 37.1.

What about the “A431 cell proliferation inhibition ratio/TMD8 cell proliferation inhibitio ratio” value [4] of the same compound?
Its value is greater than 2675.9.

With `CN(C)C/C=C/C(=O)N1CC[C@@H](n2cc(C(=O)Nc3nc4cc(Cl)ccc4o3)c3c(N)ncnc32)C1` [Example 49, (R,E)-4-amino-N-(5-chlorobenzo[d]oxazol-2-yl)-7-(1-(4-(dimethylamino)but-2-enoyl)pyrrolidin-3-yl) 7H-pyrrolo[2,3-d]pyrimidine-5-carboxamide] as the compound, how does the IC50 [2] read?
Its IC50 is 1.53 nM.

What about the “EGFR inhibitory activity IC50 value” value [3] of the same compound?
The value was 24.8.

What about the “A431 cell proliferation inhibition ratio/TMD8 cell proliferation inhibitio ratio” value [4] of the same compound?
Its value is greater than 3260.5.

What does the source list for `Nc1ncnc2c1c(C(=O)Nc1nc3cc(Cl)ccc3o1)cn2[C@@H]1CCN(C(=O)/C=C/CN2CCCC2)C1` [Example 53, (R,E)-4-amino-N-(5-chlorobenzo[d]oxazol-2-yl)-7-(1-(4-(pyrrolidin-1-yl)but-2-enoyl)pyrrolidin-3-yl) 7H-pyrrolo[2,3-d]pyrimidine-5-carboxamide]?
IC50 [2]: 1.68 nM; EGFR inhibitory activity IC50 value (nM)/BTK inhibitory activity IC50 value (nM) [3]: 25.5; A431 cell proliferation inhibition ratio/TMD8 cell proliferation inhibitio ratio [4]: >1535.4

— US9580432B2, “Fused pyrimidine compound or salt thereof” (TAIHO PHARMACEUTICAL CO., LTD., priority 2013, dated 2017)
